Reference: PubChem BioAssay (NCI)
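A five-concentration, 48-hour dose response in 96-well plates underlies each endpoint, interpolated linearly between surrounding concentrations. GI50 marks 50% less growth. TGI: total growth inhibition.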

What was measured:
Test in all cases: NCI anticancer screen, dose series, 48 h
OVCAR-3 ovarian = test system: OVCAR-3 ovarian
SF-539 CNS = test system: SF-539 CNS
RXF 393 renal = test system: RXF 393 renal
SF-268 CNS = test system: SF-268 CNS
DU-145 prostate = test system: DU-145 prostate
MOLT-4 leukemia = test system: MOLT-4 leukemia
UACC-257 melanoma = test system: UACC-257 melanoma
NCI/ADR-RES ovarian = test system: NCI/ADR-RES ovarian
SN12C renal = test system: SN12C renal
RPMI-8226 leukemia = test system: RPMI-8226 leukemia
NCI-H522 lung = test system: NCI-H522 lung
M14 melanoma = test system: M14 melanoma
HT29 colon = test system: HT29 colon
SF-295 CNS = test system: SF-295 CNS
MDA-MB-231 breast = test system: MDA-MB-231 breast
HCC-2998 colon = test system: HCC-2998 colon
HCT-15 colon = test system: HCT-15 colon
SK-MEL-5 melanoma = test system: SK-MEL-5 melanoma
HS 578T breast = test system: HS 578T breast
CAKI-1 renal = test system: CAKI-1 renal
NCI-H226 lung = test system: NCI-H226 lung
TK-10 renal = test system: TK-10 renal
T-47D breast = test system: T-47D breast
SK-OV-3 ovarian = test system: SK-OV-3 ovarian
COLO 205 colon = test system: COLO 205 colon
SR leukemia = test system: SR leukemia
LOX IMVI melanoma = test system: LOX IMVI melanoma
SW-620 colon = test system: SW-620 colon
SNB-19 CNS = test system: SNB-19 CNS
HL-60(TB) leukemia = test system: HL-60(TB) leukemia
PC-3 prostate = test system: PC-3 prostate
SNB-75 CNS = test system: SNB-75 CNS
NCI-H23 lung = test system: NCI-H23 lung
A498 renal = test system: A498 renal
CCRF-CEM leukemia = test system: CCRF-CEM leukemia
MDA-MB-435 = test system: MDA-MB-435
HOP-62 NSCLC = test system: HOP-62 NSCLC
SK-MEL-2 melanoma = test system: SK-MEL-2 melanoma
UO-31 renal = test system: UO-31 renal
ACHN renal = test system: ACHN renal
HCT-116 colon = test system: HCT-116 colon
KM12 colon = test system: KM12 colon
MALME-3M melanoma = test system: MALME-3M melanoma
SK-MEL-28 melanoma = test system: SK-MEL-28 melanoma
OVCAR-5 ovarian = test system: OVCAR-5 ovarian
IGROV1 ovarian = test system: IGROV1 ovarian
BT-549 breast = test system: BT-549 breast
EKVX NSCLC = test system: EKVX NSCLC
A549 NSCLC = test system: A549 NSCLC
U251 CNS = test system: U251 CNS
OVCAR-8 ovarian = test system: OVCAR-8 ovarian
MCF7 breast = test system: MCF7 breast
HOP-92 NSCLC = test system: HOP-92 NSCLC
K-562 leukemia = test system: K-562 leukemia
786-0 renal = test system: 786-0 renal
OVCAR-4 ovarian = test system: OVCAR-4 ovarian
UACC-62 melanoma = test system: UACC-62 melanoma
NCI-H460 lung = test system: NCI-H460 lung

Work on `COc1ccc2cc(-c3ccc(-c4ccc(C(=N)N)s4)s3)ccc2c1` yielded a GI50 (OVCAR-3 ovarian) of 2.42 µM, a TGI (OVCAR-3 ovarian) of 6.07 µM and a GI50 (SF-539 CNS) of 3.91 µM. For the same molecule, the TGI (SF-539 CNS) was 19.2 µM, the GI50 (RXF 393 renal) was 7.22 µM and the TGI (RXF 393 renal) was 23.2 µM. For the same molecule, the GI50 (SF-268 CNS) was 2.1 µM, the TGI (SF-268 CNS) was 4.97 µM and the GI50 (DU-145 prostate) was 1.7 µM. For the same molecule, the TGI (DU-145 prostate) was 3.32 µM, the GI50 (MOLT-4 leukemia) was 2.17 µM and the TGI (MOLT-4 leukemia) was 6.7 µM. The GI50 (UACC-257 melanoma) was 19.6 µM, the TGI (UACC-257 melanoma) was 35.4 µM and the GI50 (NCI/ADR-RES ovarian) was 2.29 µM. For the same molecule, the TGI (NCI/ADR-RES ovarian) was 4.87 µM, the GI50 (SN12C renal) was 2.12 µM and the TGI (SN12C renal) was 4.65 µM. For the same molecule, the GI50 (RPMI-8226 leukemia) was 2.16 µM, the TGI (RPMI-8226 leukemia) was 5.06 µM and the GI50 (NCI-H522 lung) was 1.92 µM. The TGI (NCI-H522 lung) was 4.57 µM, the GI50 (M14 melanoma) was 4 µM and the TGI (M14 melanoma) was 15.7 µM. It also gave a GI50 (HT29 colon) of 1.72 µM, a TGI (HT29 colon) of 3.27 µM and a GI50 (SF-295 CNS) of 5.07 µM. For the same molecule, the TGI (SF-295 CNS) was 17.6 µM, the GI50 (MDA-MB-231 breast) was 2.46 µM and the TGI (MDA-MB-231 breast) was 5.42 µM. It also gave a GI50 (HCC-2998 colon) of 3.35 µM, a TGI (HCC-2998 colon) of 11.7 µM and a GI50 (HCT-15 colon) of 1.89 µM. It also gave a TGI (HCT-15 colon) of 3.7 µM, a GI50 (SK-MEL-5 melanoma) of 16.1 µM and a TGI (SK-MEL-5 melanoma) of 30.2 µM. For the same molecule, the GI50 (HS 578T breast) was 16.6 µM, the TGI (HS 578T breast) was 50 µM and the GI50 (CAKI-1 renal) was 8.29 µM. The TGI (CAKI-1 renal) was 21.9 µM, the GI50 (NCI-H226 lung) was 23.6 µM and the TGI (NCI-H226 lung) was 59.3 µM. For the same molecule, the GI50 (TK-10 renal) was 14.2 µM, the TGI (TK-10 renal) was 29.2 µM and the GI50 (T-47D breast) was 1.79 µM. The TGI (T-47D breast) was 4.01 µM, the GI50 (SK-OV-3 ovarian) was 17.9 µM and the TGI (SK-OV-3 ovarian) was 33.2 µM. For the same molecule, the GI50 (COLO 205 colon) was 2.04 µM, the TGI (COLO 205 colon) was 4.24 µM and the GI50 (SR leukemia) was 0.851 µM. For the same molecule, the TGI (SR leukemia) was 3.38 µM, the GI50 (LOX IMVI melanoma) was 1.95 µM and the TGI (LOX IMVI melanoma) was 3.82 µM. The GI50 (SW-620 colon) was 1.91 µM, the TGI (SW-620 colon) was 3.81 µM and the GI50 (SNB-19 CNS) was 2.13 µM. It also gave a TGI (SNB-19 CNS) of over 100 µM, a GI50 (HL-60(TB) leukemia) of 1.84 µM and a TGI (HL-60(TB) leukemia) of 5.34 µM. For the same molecule, the GI50 (PC-3 prostate) was 2.13 µM, the TGI (PC-3 prostate) was 4.33 µM and the GI50 (SNB-75 CNS) was 10.4 µM. It also gave a TGI (SNB-75 CNS) of 26.6 µM, a GI50 (NCI-H23 lung) of 3.22 µM and a TGI (NCI-H23 lung) of 9.89 µM. It also gave a GI50 (A498 renal) of 14.3 µM, a TGI (A498 renal) of 42.3 µM and a GI50 (CCRF-CEM leukemia) of 1.51 µM. For the same molecule, the TGI (CCRF-CEM leukemia) was 4.21 µM, the GI50 (MDA-MB-435) was 2.01 µM and the TGI (MDA-MB-435) was 4.48 µM. The GI50 (HOP-62 NSCLC) was 1.78 µM, the TGI (HOP-62 NSCLC) was 3.68 µM and the GI50 (SK-MEL-2 melanoma) was 2.66 µM. It also gave a TGI (SK-MEL-2 melanoma) of 6.7 µM, a GI50 (UO-31 renal) of 2.88 µM and a TGI (UO-31 renal) of 9.72 µM. The GI50 (ACHN renal) was 3.06 µM, the TGI (ACHN renal) was 8.76 µM and the GI50 (HCT-116 colon) was 2.08 µM. The TGI (HCT-116 colon) was 4.11 µM, the GI50 (KM12 colon) was 2.06 µM and the TGI (KM12 colon) was 4.68 µM. It also gave a GI50 (MALME-3M melanoma) of 3.32 µM, a TGI (MALME-3M melanoma) of 11.5 µM and a GI50 (SK-MEL-28 melanoma) of 2.5 µM. For the same molecule, the TGI (SK-MEL-28 melanoma) was 6.04 µM, the GI50 (OVCAR-5 ovarian) was 2.11 µM and the TGI (OVCAR-5 ovarian) was 4.18 µM. For the same molecule, the GI50 (IGROV1 ovarian) was 2.27 µM, the TGI (IGROV1 ovarian) was 5.45 µM and the GI50 (BT-549 breast) was 17.6 µM. The TGI (BT-549 breast) was 38.5 µM, the GI50 (EKVX NSCLC) was 2.14 µM and the TGI (EKVX NSCLC) was 6.1 µM.
`O=c1oc(-c2ccc(O)c(O)c2)cc2cccc(O)c12` was tested, and the TGI (OVCAR-3 ovarian) was over 62.4 µM, the TGI (SF-539 CNS) was over 85.6 µM and the TGI (A549 NSCLC) was over 100 µM. The TGI (RXF 393 renal) was 69.3 µM, the TGI (SF-268 CNS) was over 85.2 µM and the GI50 (U251 CNS) was 17.1 µM. The TGI (U251 CNS) was 79.1 µM, the TGI (OVCAR-8 ovarian) was over 100 µM and the TGI (DU-145 prostate) was 70.2 µM. The TGI (MOLT-4 leukemia) was 52 µM, the TGI (UACC-257 melanoma) was 61.3 µM and the TGI (NCI/ADR-RES ovarian) was 51.3 µM. For the same molecule, the TGI (SN12C renal) was 46.1 µM, the TGI (RPMI-8226 leukemia) was 29.5 µM and the TGI (NCI-H522 lung) was over 50.8 µM. For the same molecule, the TGI (M14 melanoma) was 51.8 µM, the TGI (MCF7 breast) was over 54.1 µM and the TGI (HOP-92 NSCLC) was 43.4 µM. It also gave a GI50 (HT29 colon) of 28.1 µM, a TGI (HT29 colon) of over 100 µM and a TGI (SF-295 CNS) of 80.2 µM. The GI50 (MDA-MB-231 breast) was 14.1 µM, the TGI (MDA-MB-231 breast) was 46.9 µM and the TGI (HCC-2998 colon) was 37 µM. For the same molecule, the TGI (HCT-15 colon) was over 100 µM, the TGI (SK-MEL-5 melanoma) was 23.4 µM and the TGI (HS 578T breast) was 73.2 µM. For the same molecule, the TGI (CAKI-1 renal) was 38.7 µM, the GI50 (NCI-H226 lung) was 15.2 µM and the TGI (NCI-H226 lung) was 58.7 µM. For the same molecule, the TGI (TK-10 renal) was over 49.1 µM, the TGI (T-47D breast) was 9.46 µM and the TGI (SK-OV-3 ovarian) was 74.9 µM. For the same molecule, the TGI (COLO 205 colon) was over 48.3 µM, the TGI (K-562 leukemia) was 49.2 µM and the GI50 (LOX IMVI melanoma) was 12.5 µM. For the same molecule, the TGI (LOX IMVI melanoma) was 37.2 µM, the TGI (SW-620 colon) was 78.2 µM and the TGI (SNB-19 CNS) was over 76.9 µM. The TGI (HL-60(TB) leukemia) was 50.2 µM, the TGI (PC-3 prostate) was 47.3 µM and the TGI (SNB-75 CNS) was over 100 µM. It also gave a TGI (NCI-H23 lung) of 53.6 µM, a TGI (A498 renal) of 42.4 µM and a TGI (CCRF-CEM leukemia) of over 46.1 µM. It also gave a TGI (MDA-MB-435) of 60.3 µM, a TGI (HOP-62 NSCLC) of 47.3 µM and a TGI (786-0 renal) of 85.9 µM. It also gave a TGI (SK-MEL-2 melanoma) of 69.7 µM, a TGI (OVCAR-4 ovarian) of 69.2 µM and a TGI (UO-31 renal) of over 59.4 µM. For the same molecule, the TGI (ACHN renal) was over 81.7 µM, the TGI (HCT-116 colon) was 23.7 µM and the TGI (KM12 colon) was 32.1 µM. It also gave a TGI (MALME-3M melanoma) of over 86.5 µM, a GI50 (SK-MEL-28 melanoma) of 24.6 µM and a TGI (SK-MEL-28 melanoma) of 87.3 µM. For the same molecule, the TGI (OVCAR-5 ovarian) was 86.5 µM, the GI50 (UACC-62 melanoma) was 16.6 µM and the TGI (UACC-62 melanoma) was 37.3 µM. The TGI (IGROV1 ovarian) was over 64.7 µM, the TGI (BT-549 breast) was 49 µM and the TGI (NCI-H460 lung) was over 68.2 µM. It also gave a TGI (EKVX NSCLC) of 51.2 µM.
